Target: T1, EPHA7 (Homo sapiens, UniProt Q15375)
T1 construct: purchased Thermo Fisher Scientific (Life Technologies) SelectScreen
Test: SelectScreen LanthaScreen
Assay type: binding
Conditions: read-out: % displacement
How it was run: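 SelectScreen broad panel; activity (Z'LYTE, Adapta) plus binding formats. ATP: Km app for CSF1R Z'LYTE; 10 for CAMK1 Adapta. Readout = % per kinase.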

T1 sequence (Q15375 28-998): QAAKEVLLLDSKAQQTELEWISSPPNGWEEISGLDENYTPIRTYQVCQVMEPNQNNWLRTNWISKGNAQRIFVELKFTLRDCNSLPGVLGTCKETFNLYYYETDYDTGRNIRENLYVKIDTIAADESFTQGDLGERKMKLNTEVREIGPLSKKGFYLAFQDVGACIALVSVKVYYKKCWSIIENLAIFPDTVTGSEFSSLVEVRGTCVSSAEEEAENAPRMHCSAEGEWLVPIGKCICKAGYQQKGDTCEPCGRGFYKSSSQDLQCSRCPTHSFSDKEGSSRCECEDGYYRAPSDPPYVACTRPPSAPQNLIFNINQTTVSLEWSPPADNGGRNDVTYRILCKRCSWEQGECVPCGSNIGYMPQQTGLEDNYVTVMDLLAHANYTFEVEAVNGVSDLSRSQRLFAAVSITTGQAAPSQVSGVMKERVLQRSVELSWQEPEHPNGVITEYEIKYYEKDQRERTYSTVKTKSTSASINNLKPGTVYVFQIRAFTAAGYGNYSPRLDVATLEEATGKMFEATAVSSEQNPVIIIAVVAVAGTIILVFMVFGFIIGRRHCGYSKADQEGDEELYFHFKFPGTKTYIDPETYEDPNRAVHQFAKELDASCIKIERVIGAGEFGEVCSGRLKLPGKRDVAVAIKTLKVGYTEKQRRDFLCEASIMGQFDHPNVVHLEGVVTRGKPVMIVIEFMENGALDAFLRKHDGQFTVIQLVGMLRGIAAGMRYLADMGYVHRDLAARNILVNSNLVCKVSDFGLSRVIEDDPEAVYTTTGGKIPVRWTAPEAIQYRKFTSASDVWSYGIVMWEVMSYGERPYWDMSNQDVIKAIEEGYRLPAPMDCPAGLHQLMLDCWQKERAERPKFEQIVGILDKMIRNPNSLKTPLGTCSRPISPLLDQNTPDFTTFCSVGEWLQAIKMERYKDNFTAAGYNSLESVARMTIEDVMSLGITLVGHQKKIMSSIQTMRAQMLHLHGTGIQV

CN(C(=O)CN1CCOCC1)c1ccc2sc3c(-c4cccc5c(=O)cc(N6CC7CCC(C6)O7)oc45)cccc3c2c1 [NU5455]
inhibition at 1 µM: 1.2%

From article PMC6934184, “Selective DNA-PKcs inhibition extends the therapeutic index of localized radiotherapy and chemotherapy” (The Journal of Clinical Investigation, 2019)
